Test results as given in PubChem BioAssay (NCI).
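Dose response: 5 concentrations. Exposure: 48 h. Format: 96-well plates. Endpoint: linear interpolation; highest concentration if not reached. At the GI50, growth is halved. The concentration for full growth arrest is given as TGI.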

How the values were obtained:
Experiment in all cases: NCI anticancer screen, dose series, 48 h
[1] = system: 786-0 renal
[2] = system: A498 renal
[3] = system: BT-549 breast
[4] = system: CAKI-1 renal
[5] = system: COLO 205 colon
[6] = system: DU-145 prostate
[7] = system: HCC-2998 colon
[8] = system: HL-60(TB) leukemia
[9] = system: HOP-62 NSCLC
[10] = system: HS 578T breast
[11] = system: LOX IMVI melanoma
[12] = system: MDA-MB-231 breast
[13] = system: NCI-H226 lung
[14] = system: NCI-H23 lung
[15] = system: OVCAR-5 ovarian
[16] = system: PC-3 prostate
[17] = system: RXF 393 renal
[18] = system: SF-295 CNS
[19] = system: SK-MEL-2 melanoma
[20] = system: SK-OV-3 ovarian
[21] = system: SN12C renal
[22] = system: SNB-19 CNS
[23] = system: SNB-75 CNS
[24] = system: T-47D breast
[25] = system: UACC-257 melanoma
[26] = system: UACC-62 melanoma
[27] = system: UO-31 renal
[28] = system: ACHN renal
[29] = system: M14 melanoma
[30] = system: MDA-MB-435
[31] = system: SR leukemia
[32] = system: TK-10 renal
[33] = system: A549 NSCLC
[34] = system: CCRF-CEM leukemia
[35] = system: EKVX NSCLC
[36] = system: HCT-116 colon
[37] = system: HCT-15 colon
[38] = system: HOP-92 NSCLC
[39] = system: HT29 colon
[40] = system: IGROV1 ovarian
[41] = system: K-562 leukemia
[42] = system: KM12 colon
[43] = system: MALME-3M melanoma
[44] = system: MCF7 breast
[45] = system: MOLT-4 leukemia
[46] = system: NCI-H460 lung
[47] = system: NCI-H522 lung
[48] = system: NCI/ADR-RES ovarian
[49] = system: OVCAR-3 ovarian
[50] = system: OVCAR-4 ovarian
[51] = system: OVCAR-8 ovarian
[52] = system: RPMI-8226 leukemia
[53] = system: SF-268 CNS
[54] = system: SF-539 CNS
[55] = system: SK-MEL-28 melanoma
[56] = system: SK-MEL-5 melanoma
[57] = system: SW-620 colon
[58] = system: U251 CNS

For CCCCCCCCCCCCCCCCSC(=NCC)NCC, the GI50 [1] was 3490 nM, the TGI [1] was 20800 nM and the GI50 [2] was 6660 nM. The TGI [2] was 34300 nM, the GI50 [3] was 6160 nM and the TGI [3] was 46900 nM. It also gave a GI50 [4] of 1390 nM, a TGI [4] of 2780 nM and a GI50 [5] of 1810 nM. For the same compound, the TGI [5] was 3470 nM, the GI50 [6] was 1620 nM and the TGI [6] was 2980 nM. The GI50 [7] was 1850 nM, the TGI [7] was 3280 nM and the GI50 [8] was 1450 nM. For the same compound, the TGI [8] was 3120 nM, the GI50 [9] was 1770 nM and the TGI [9] was 3180 nM. For the same compound, the GI50 [10] was 2800 nM, the TGI [10] was 8840 nM and the GI50 [11] was 1630 nM. For the same compound, the TGI [11] was 3000 nM, the GI50 [12] was 1310 nM and the TGI [12] was 2690 nM. It also gave a GI50 [13] of 2980 nM, a TGI [13] of 14600 nM and a GI50 [14] of 2050 nM. It also gave a TGI [14] of 4990 nM, a GI50 [15] of 3080 nM and a TGI [15] of 12500 nM. The GI50 [16] was 1370 nM, the TGI [16] was 2740 nM and the GI50 [17] was 1630 nM. The TGI [17] was 3470 nM, the GI50 [18] was 1470 nM and the TGI [18] was 2880 nM. For the same compound, the GI50 [19] was 4050 nM, the TGI [19] was 28400 nM and the GI50 [20] was 3360 nM. It also gave a TGI [20] of 11600 nM, a GI50 [21] of 1560 nM and a TGI [21] of 2980 nM. For the same compound, the GI50 [22] was 3120 nM, the TGI [22] was 15800 nM and the GI50 [23] was 2010 nM. It also gave a TGI [23] of 12900 nM, a GI50 [24] of 1480 nM and a TGI [24] of 3130 nM. The GI50 [25] was 1870 nM, the TGI [25] was 3750 nM and the GI50 [26] was 1670 nM. For the same compound, the TGI [26] was 3100 nM, the GI50 [27] was 1620 nM and the TGI [27] was 4090 nM.
Work on COc1ccc(O)c2c(=O)c3c(OC)cc4c(c3oc12)[C@@H]1C=CO[C@@H]1O4 yielded a GI50 [1] of 9870 nM, a TGI [1] of over 60500 nM and a GI50 [28] of 321 nM. It also gave a TGI [28] of 5640 nM, a GI50 [3] of 4770 nM and a TGI [3] of 36500 nM. It also gave a GI50 [6] of 3030 nM, a TGI [6] of over 34900 nM and a GI50 [10] of 3960 nM. It also gave a TGI [10] of over 43000 nM, a GI50 [29] of over 21400 nM and a TGI [29] of over 100000 nM. It also gave a GI50 [12] of 7900 nM, a TGI [12] of over 100000 nM and a GI50 [30] of 3300 nM. For the same compound, the TGI [30] was over 100000 nM, the GI50 [16] was over 21400 nM and the TGI [16] was over 100000 nM. The GI50 [31] was 51.8 nM, the GI50 [24] was 475 nM and the TGI [24] was 13300 nM. For the same compound, the GI50 [32] was 4510 nM and the TGI [32] was 34900 nM.
COc1cc2c3c(n(CCCn4ccnc4)c(=O)c2cc1OC)-c1cc2c(cc1C3=O)OCO2 showed a GI50 [1] of under 10 nM, a TGI [1] of 91.7 nM and a GI50 [2] of 20.3 nM. It also gave a TGI [2] of 87.8 nM, a GI50 [33] of 52.8 nM and a TGI [33] of over 100000 nM. It also gave a GI50 [28] of under 10 nM, a TGI [28] of over 100000 nM and a GI50 [4] of under 10 nM. The TGI [4] was 27 nM, the GI50 [34] was under 10 nM and the TGI [34] was under 10 nM. It also gave a GI50 [5] of 312 nM, a TGI [5] of over 100000 nM and a GI50 [6] of under 10 nM. The TGI [6] was over 100000 nM, the GI50 [35] was 1100 nM and the TGI [35] was over 20900 nM. For the same compound, the GI50 [7] was under 10 nM, the TGI [7] was 34.5 nM and the GI50 [36] was under 10 nM. The TGI [36] was 148 nM, the GI50 [37] was 824 nM and the TGI [37] was over 100000 nM. It also gave a GI50 [8] of under 10 nM, a TGI [8] of under 19.5 nM and a GI50 [9] of under 10 nM. It also gave a TGI [9] of 153 nM, a TGI [38] of over 100000 nM and a GI50 [10] of over 100000 nM. It also gave a TGI [10] of over 100000 nM, a GI50 [39] of 94.8 nM and a TGI [39] of over 100000 nM. For the same compound, the GI50 [40] was 959 nM, the TGI [40] was over 100000 nM and the GI50 [41] was 12.2 nM. It also gave a GI50 [42] of 142 nM, a TGI [42] of 9320 nM and a GI50 [11] of under 10 nM. For the same compound, the TGI [11] was 171 nM, the GI50 [29] was under 10 nM and the TGI [29] was 100 nM. It also gave a GI50 [43] of 791 nM, a TGI [43] of over 31500 nM and a GI50 [44] of under 12.9 nM. The TGI [44] was over 100000 nM, the GI50 [12] was 347 nM and the TGI [12] was 3570 nM. It also gave a GI50 [30] of 72.8 nM, a TGI [30] of 1670 nM and a GI50 [45] of under 10 nM. The TGI [45] was under 10 nM, the GI50 [13] was under 13.5 nM and the TGI [13] was 160 nM. For the same compound, the GI50 [14] was 16.2 nM, the TGI [14] was 164 nM and the GI50 [46] was under 10 nM. For the same compound, the TGI [46] was over 21700 nM, the GI50 [47] was 369 nM and the TGI [47] was over 100000 nM. The GI50 [48] was 28.5 nM, the TGI [48] was 3590 nM and the GI50 [49] was 79.5 nM. For the same compound, the TGI [49] was 804 nM, the GI50 [50] was 2900 nM and the TGI [50] was over 100000 nM. The GI50 [15] was 141 nM, the TGI [15] was 8330 nM and the GI50 [51] was 280 nM. It also gave a TGI [51] of over 100000 nM, a GI50 [16] of 1280 nM and a TGI [16] of over 100000 nM. It also gave a GI50 [52] of under 10 nM, a TGI [52] of 153 nM and a GI50 [17] of over 100000 nM. The TGI [17] was over 100000 nM, the GI50 [53] was under 10 nM and the TGI [53] was over 100000 nM. It also gave a GI50 [18] of under 10 nM, a TGI [18] of 1210 nM and a GI50 [54] of under 19.3 nM. The GI50 [19] was over 100000 nM, the TGI [19] was over 100000 nM and the GI50 [55] was over 100000 nM. The TGI [55] was over 100000 nM, the GI50 [56] was 18.5 nM and the TGI [56] was 133 nM. It also gave a GI50 [21] of under 10 nM, a TGI [21] of 182 nM and a GI50 [22] of 35.8 nM. It also gave a TGI [22] of over 100000 nM, a GI50 [23] of 34.5 nM and a TGI [23] of over 100000 nM. For the same compound, the GI50 [31] was under 10 nM, the TGI [31] was under 10 nM and the GI50 [57] was under 10.9 nM. It also gave a TGI [57] of over 100000 nM, a GI50 [24] of under 10 nM and a TGI [24] of under 10 nM. The GI50 [32] was 2220 nM, the TGI [32] was over 100000 nM and the GI50 [58] was under 10 nM. For the same compound, the TGI [58] was 1030 nM, the GI50 [25] was 1200 nM and the TGI [25] was 26800 nM. It also gave a GI50 [26] of under 10 nM, a TGI [26] of 93.7 nM and a GI50 [27] of under 26.9 nM. For the same compound, the TGI [27] was over 48300 nM.
